Measurements published in patent US20240247021A1, “CRYSTAL FORMS OF KUDING SAPONIN A COMPOUND, PHARMACEUTICAL COMPOSITION AND USE THEREOF” (SHANGHAI KE PHARMACEUTICAL CO., LTD, priority 2021, published 2024).
Like-named read-outs stand apart in the source and are kept apart here.

Tests used:
[1] = Thermogravimetric analysis (TGA); type: physicochemical; settings: 10 K/min, nitrogen
From the text: Thermogravimetric analysis, or TGA for short, refers to a thermal analysis method for measuring the relationship of the mass of a sample to be detected with the change of temperature or time at a programmed temperature, and it is used to study information related to the quality of the sample, such as thermal stability, components of intermediate products possibly generated, etc. It is often used in combination with other thermal analysis methods for comprehensive thermal analysis. Methods for performing thermogravimetric analysis on the crystals are well known to those skilled in the art. In the present invention, the crystal forms A, C, and J of Kudinoside A are determined by using a thermogravimetric analyzer, and the specific measurement conditions are shown in Table 6.

[2] = Conditions under which the crystal forms exist stably; type: physicochemical
[3] = Hygroscopicity test by dynamic vapor sorption (DVS); type: physicochemical; settings: for Degree of hygroscopicity: criteria of Table 12
Description: Dynamic vapor sorption (DVS) is a test method for analyzing the moisture sorption performance of a sample and recording the moisture sorption isotherm, and it determines the stability of a compound by identifying its sorption capacity for moisture. Methods for performing dynamic vapor sorption analysis on the crystals are well known to those skilled in the art. In the present invention, the hygroscopicity of the crystal forms A, C, and J of Kudinoside A is determined by using a dynamic vapor sorption instrument, and the specific measurement conditions are shown in Table 7.
About 10 mg of each of the crystal forms A, C, and J obtained in Examples 1-3 was tested for its hygroscopicity using a dynamic vapor sorption (DVS) instrument (test conditions: a temperature of 25° C. and a relative humidity of 0%-80%), and the hygroscopicity of each crystal form was judged using the criteria shown in Table 12 below. For the steps and the judgment criteria of the hygroscopicity test, reference is made to the General Requirement 9103-Guidelines for Hygroscopicity in Pharmacopoeia of the People's Republic of China 2020 (Volume IV).

[4] = Competition experiment of crystal form A and crystal form J in water suspension; type: physicochemical; settings: equal mixture of crystal forms A and J suspended in water, stirred at room temperature 3 days; XRPD of wet and dry sample
Description: Firstly, an initial mixing sample was prepared: samples of the crystal form A and the crystal form J of Kudinoside A with the equivalent quantity were uniformly mixed, and sampling was carried out for XRPD detection.
Water was added to the sample to form a suspension, which was stirred at room temperature and then centrifuged 3 days later, and sampling was carried out for XRPD detection (wet sample); after drying under vacuum at 30° C., the sample was subjected to XRPD detection (dry sample).

[5] = Accelerated test (40 ± 2° C., humidity 75% ± 5%), 0 month
[6] = Accelerated test (40 ± 2° C., humidity 75% ± 5%), 1 month
[7] = Accelerated test (40 ± 2° C., humidity 75% ± 5%), 3 month
[8] = Accelerated test (40 ± 2° C., humidity 75% ± 5%), 4 month
[9] = Accelerated test (40 ± 2° C., humidity 75% ± 5%), 5 month
[10] = Accelerated test (40 ± 2° C., humidity 75% ± 5%), 6 month
[11] = Long-term test 1 (25 ± 2° C., humidity 60% ± 5%), 0 month
[12] = Long-term test 1 (25 ± 2° C., humidity 60% ± 5%), 1 month
[13] = Long-term test 1 (25 ± 2° C., humidity 60% ± 5%), 3 month
[14] = Long-term test 1 (25 ± 2° C., humidity 60% ± 5%), 4 month
[15] = Long-term test 1 (25 ± 2° C., humidity 60% ± 5%), 6 month
[16] = Long-term test 1 (25 ± 2° C., humidity 60% ± 5%), 9 month
[17] = Long-term test 1 (25 ± 2° C., humidity 60% ± 5%), 12 month
[18] = Long-term test 1 (25 ± 2° C., humidity 60% ± 5%), 24 month
[19] = Long-term test 2 (5 ± 3° C.), 0 month
[20] = Long-term test 2 (5 ± 3° C.), 1 month
[21] = Long-term test 2 (5 ± 3° C.), 3 month
[22] = Long-term test 2 (5 ± 3° C.), 4 month
[23] = Long-term test 2 (5 ± 3° C.), 6 month
[24] = Long-term test 2 (5 ± 3° C.), 9 month
[25] = Long-term test 2 (5 ± 3° C.), 12 month
[26] = Long-term test 2 (5 ± 3° C.), 24 month
[27] = DVS, 25° C., relative humidity 0%-80%

C[C@@H]1O[C@@H](O[C@H]2[C@H](O[C@H]3CC[C@]4(C)[C@H]5C[C@H](O)C6=C7[C@]8(CC[C@](C)(OC8=O)[C@@]7(C)O)CC[C@@]6(C)[C@]5(C)CC[C@H]4C3(C)C)OC[C@H](O)[C@@H]2O[C@@H]2O[C@H](CO)[C@@H](O)[C@H](O)[C@H]2O)[C@H](O)[C@H](O)[C@H]1O [crystal form A, Kudinoside A]
Appearance [5]: White
Content of Kudinoside A [5]: 100.2 % of the labeled amount
Content of impurity F (Kudinoside D) [5]: 0.09%
Total content of impurities [5]: 0.09%
Appearance [6]: White
Content of Kudinoside A [6]: 101.7 % of the labeled amount
Content of impurity F (Kudinoside D) [6]: 0.17%
Total content of impurities [6]: 0.17%
Appearance [7]: White
Content of Kudinoside A [7]: 99.0 % of the labeled amount
Content of impurity F (Kudinoside D) [7]: 0.26%
Total content of impurities [7]: 0.43%
Appearance [8]: White
Content of Kudinoside A [8]: 98.0 % of the labeled amount
Content of impurity F (Kudinoside D) [8]: 0.29%
Total content of impurities [8]: 0.52%
Appearance [9]: White
Content of Kudinoside A [9]: 98.9 % of the labeled amount
Content of impurity F (Kudinoside D) [9]: 0.29%
Total content of impurities [9]: 0.60%
Appearance [10]: White
Content of Kudinoside A [10]: 98.4 % of the labeled amount
Content of impurity F (Kudinoside D) [10]: 0.29%
Total content of impurities [10]: 0.66%
Appearance [11]: White
Content of Kudinoside A [11]: 100.2 % of the labeled amount
Content of impurity F (Kudinoside D) [11]: 0.09%
Total content of impurities [11]: 0.09%
Appearance [12]: White
Content of Kudinoside A [12]: 101.4 % of the labeled amount
Content of impurity F (Kudinoside D) [12]: 0.09%
Total content of impurities [12]: 0.09%
Appearance [13]: White
Content of Kudinoside A [13]: 100.2 % of the labeled amount
Content of impurity F (Kudinoside D) [13]: 0.12%
Total content of impurities [13]: 0.12%
Appearance [14]: White
Content of Kudinoside A [14]: 99.2 % of the labeled amount
Content of impurity F (Kudinoside D) [14]: 0.13%
Total content of impurities [14]: 0.13%
Appearance [15]: White
Content of Kudinoside A [15]: 98.3 % of the labeled amount
Content of impurity F (Kudinoside D) [15]: 0.15%
Total content of impurities [15]: 0.15%
Appearance [16]: White
Content of Kudinoside A [16]: 98.8 % of the labeled amount
Content of impurity F (Kudinoside D) [16]: 0.19%
Total content of impurities [16]: 0.19%
Appearance [17]: White
Content of Kudinoside A [17]: 99.8 % of the labeled amount
Content of impurity F (Kudinoside D) [17]: 0.19%
Total content of impurities [17]: 0.19%
Appearance [18]: White
Content of Kudinoside A [18]: 100.2 % of the labeled amount
Content of impurity F (Kudinoside D) [18]: 0.21%
Total content of impurities [18]: 0.35%
Appearance [19]: White
Content of Kudinoside A [19]: 100.2 % of the labeled amount
Content of impurity F (Kudinoside D) [19]: 0.09%
Total content of impurities [19]: 0.09%
Appearance [20]: White
Content of Kudinoside A [20]: 101.8 % of the labeled amount
Content of impurity F (Kudinoside D) [20]: 0.08%
Total content of impurities [20]: 0.08%
Appearance [21]: White
Content of Kudinoside A [21]: 99.9 % of the labeled amount
Content of impurity F (Kudinoside D) [21]: 0.10%
Total content of impurities [21]: 0.10%
Appearance [22]: White
Content of Kudinoside A [22]: 99.8 % of the labeled amount
Content of impurity F (Kudinoside D) [22]: 0.08%
Total content of impurities [22]: 0.08%
Appearance [23]: White
Content of Kudinoside A [23]: 98.6 % of the labeled amount
Content of impurity F (Kudinoside D) [23]: 0.09%
Total content of impurities [23]: 0.09%
Appearance [24]: White
Content of Kudinoside A [24]: 99.2 % of the labeled amount
Content of impurity F (Kudinoside D) [24]: 0.09%
Total content of impurities [24]: 0.09%
Appearance [25]: White
Content of Kudinoside A [25]: 99.8 % of the labeled amount
Content of impurity F (Kudinoside D) [25]: 0.09%
Total content of impurities [25]: 0.09%
Appearance [26]: White
Content of Kudinoside A [26]: 101.3 % of the labeled amount
Content of impurity F (Kudinoside D) [26]: 0.08%
Total content of impurities [26]: 0.08%
decomposition temperature [1]: about 318 °C
conditions under which the crystal form exists stably [2]: can exist stably as a dry powder at room temperature
weight change when the relative humidity is in the range of 0%-80% ([3]; DVS graph (FIGS. 1d, 2d, 3d)): about 12%
hygroscopicity ([3]; DVS graph (FIGS. 1d, 2d, 3d), judgment criteria of Table 7): hygroscopic
Increase in mass (relative humidity: 0%-80%) [3, 27]: 12%
Degree of hygroscopicity [3, 27]: hygroscopic
Degree of hygroscopicity ([3]; DVS, 25° C., relative humidity 0%-80%, listed as A): Hygroscopic (The increase in mass is less than 15% but not less than 2%)
crystal form conversion [4]: tends to convert to the crystal form J
